Structures can show the parent of a compound that is named as a salt. Where two headings read alike, the source gives them in different places.
Columns and labels:
[1] = test system: nuclear β-catenin in C2C12 cells; assay: cells; assay type: cell-based
hJAK2 = target: T1, hJAK2 (Homo sapiens, UniProt O60674); assay: Cerep LANCE kinase assay hJAK2 (S1 assay 33); assay type: biochemical; settings: read-out: JAK2
T1 construct: purchased Cerep (LANCE kinase assay platform, contract assay)

SW480 = assay: cells; assay type: cell-based
hKDR = target: T2, hKDR (Homo sapiens, UniProt P35968); assay: Cerep LANCE kinase assay hKDR (S1 assay 32); assay type: biochemical; settings: read-out: KDR
T2 construct: purchased Cerep (LANCE kinase assay platform, contract assay)
T2 sequence (P35968 20-1356): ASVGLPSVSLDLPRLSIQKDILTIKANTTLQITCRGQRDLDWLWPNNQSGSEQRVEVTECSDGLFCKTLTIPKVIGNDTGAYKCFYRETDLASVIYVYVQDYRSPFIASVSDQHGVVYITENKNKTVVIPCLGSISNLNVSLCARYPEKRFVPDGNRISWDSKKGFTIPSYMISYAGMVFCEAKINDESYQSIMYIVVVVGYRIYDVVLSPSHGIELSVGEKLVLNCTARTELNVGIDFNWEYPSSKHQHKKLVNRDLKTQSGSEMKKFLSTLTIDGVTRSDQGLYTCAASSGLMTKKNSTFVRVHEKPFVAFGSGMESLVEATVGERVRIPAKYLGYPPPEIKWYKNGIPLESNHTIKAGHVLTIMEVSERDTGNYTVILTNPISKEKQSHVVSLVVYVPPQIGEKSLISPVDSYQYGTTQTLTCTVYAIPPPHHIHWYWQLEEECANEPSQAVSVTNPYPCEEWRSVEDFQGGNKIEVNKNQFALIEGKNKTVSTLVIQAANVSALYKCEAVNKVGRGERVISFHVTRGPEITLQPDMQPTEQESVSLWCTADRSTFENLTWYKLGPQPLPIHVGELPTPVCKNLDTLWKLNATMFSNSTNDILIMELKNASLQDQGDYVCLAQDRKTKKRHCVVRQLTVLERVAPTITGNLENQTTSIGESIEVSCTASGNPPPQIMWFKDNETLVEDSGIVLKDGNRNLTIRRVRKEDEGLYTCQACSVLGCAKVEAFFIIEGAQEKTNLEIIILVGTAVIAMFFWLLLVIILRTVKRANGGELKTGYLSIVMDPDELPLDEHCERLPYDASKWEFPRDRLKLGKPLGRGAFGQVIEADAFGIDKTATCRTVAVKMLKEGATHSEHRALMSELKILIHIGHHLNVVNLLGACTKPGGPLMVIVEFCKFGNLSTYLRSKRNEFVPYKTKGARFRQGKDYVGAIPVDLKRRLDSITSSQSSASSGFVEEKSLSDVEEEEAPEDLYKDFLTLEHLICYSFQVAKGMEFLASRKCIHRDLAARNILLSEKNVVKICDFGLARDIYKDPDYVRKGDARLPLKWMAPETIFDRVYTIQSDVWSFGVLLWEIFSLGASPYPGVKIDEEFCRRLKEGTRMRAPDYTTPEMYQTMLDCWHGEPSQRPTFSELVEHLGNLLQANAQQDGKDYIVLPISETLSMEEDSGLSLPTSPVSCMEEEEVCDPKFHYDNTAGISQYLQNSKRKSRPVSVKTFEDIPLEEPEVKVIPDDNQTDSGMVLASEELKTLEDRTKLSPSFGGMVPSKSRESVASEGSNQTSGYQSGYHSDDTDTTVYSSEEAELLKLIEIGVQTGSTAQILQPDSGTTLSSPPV

hFLT3 = target: T3, hFLT3 (Homo sapiens, UniProt P36888); assay: Cerep LANCE kinase assay hFLT3 (S1 assay 35); assay type: biochemical; settings: read-out: FLT3
T3 construct: purchased Cerep (LANCE kinase assay platform, contract assay)
T3 sequence (P36888 27-993): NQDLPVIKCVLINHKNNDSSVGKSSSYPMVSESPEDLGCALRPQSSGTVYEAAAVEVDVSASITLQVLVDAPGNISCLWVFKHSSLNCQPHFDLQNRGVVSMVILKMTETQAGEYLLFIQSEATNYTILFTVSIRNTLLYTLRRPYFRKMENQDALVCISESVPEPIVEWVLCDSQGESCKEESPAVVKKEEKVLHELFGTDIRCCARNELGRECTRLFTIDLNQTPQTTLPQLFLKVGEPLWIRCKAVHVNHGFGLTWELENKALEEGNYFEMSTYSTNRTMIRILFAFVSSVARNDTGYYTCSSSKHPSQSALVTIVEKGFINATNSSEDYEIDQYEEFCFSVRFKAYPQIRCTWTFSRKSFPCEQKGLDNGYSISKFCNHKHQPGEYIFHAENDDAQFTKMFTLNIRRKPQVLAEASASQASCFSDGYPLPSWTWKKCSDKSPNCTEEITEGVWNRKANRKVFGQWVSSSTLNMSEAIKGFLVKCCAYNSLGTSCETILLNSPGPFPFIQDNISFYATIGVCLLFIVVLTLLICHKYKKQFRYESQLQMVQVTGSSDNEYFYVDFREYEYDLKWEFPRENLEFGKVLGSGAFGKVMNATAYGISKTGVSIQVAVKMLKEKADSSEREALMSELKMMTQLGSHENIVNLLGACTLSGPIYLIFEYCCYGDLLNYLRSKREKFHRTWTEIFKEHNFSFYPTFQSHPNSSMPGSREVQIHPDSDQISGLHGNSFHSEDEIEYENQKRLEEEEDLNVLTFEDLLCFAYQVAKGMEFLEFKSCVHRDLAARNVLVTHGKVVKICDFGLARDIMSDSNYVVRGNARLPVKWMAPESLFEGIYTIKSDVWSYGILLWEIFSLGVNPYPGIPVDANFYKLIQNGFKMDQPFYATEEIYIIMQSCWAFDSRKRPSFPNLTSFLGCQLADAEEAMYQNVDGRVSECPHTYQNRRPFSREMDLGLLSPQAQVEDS

NCI-H716 cells = assay: cells; assay type: cell-based, Human
DLD-1 = assay: cells; assay type: cell-based
[2] = test system: endothelial tube formation in co-cultures of ECFCs and ADSCs treated with VEGF; assay: cells; assay type: cell-based, human
hGSK3b = target: T4, hGSK3b (Homo sapiens, UniProt P49841); assay: Cerep LANCE kinase assay hGSK3b (S1 assay 34); assay type: biochemical; settings: read-out: GSK3b
T4 construct: purchased Cerep (LANCE kinase assay platform, contract assay)
T4 sequence (P49841 whole entry): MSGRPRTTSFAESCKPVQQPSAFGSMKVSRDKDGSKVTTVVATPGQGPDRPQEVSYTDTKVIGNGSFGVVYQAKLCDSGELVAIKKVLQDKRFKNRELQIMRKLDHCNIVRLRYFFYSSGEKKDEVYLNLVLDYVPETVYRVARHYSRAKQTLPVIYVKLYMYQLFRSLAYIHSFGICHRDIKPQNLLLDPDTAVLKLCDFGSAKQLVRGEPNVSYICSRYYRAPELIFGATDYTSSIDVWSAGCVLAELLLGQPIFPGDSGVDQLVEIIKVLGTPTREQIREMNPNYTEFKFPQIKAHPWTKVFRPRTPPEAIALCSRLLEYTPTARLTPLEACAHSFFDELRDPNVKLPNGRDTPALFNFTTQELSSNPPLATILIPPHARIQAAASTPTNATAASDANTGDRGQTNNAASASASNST

HCT116 = assay: cells; assay type: cell-based
[3] = test system: HCT116 cells treated with a GSK3β inhibitor; assay: cells; assay type: cell-based
HeLa cells = assay: cells; assay type: cell-based; settings: read-out: CellCycle G2/M
INS-1E cells = assay: cells; assay type: cell-based, rat
hp70S6K1 (RPS6KB1) = target: T5, hp70S6K1 (RPS6KB1) (Homo sapiens, UniProt P23443); assay: Cerep LANCE kinase assay hp70S6K1 (S1 assay 31); assay type: biochemical; settings: read-out: p70S6K1
T5 construct: purchased Cerep (LANCE kinase assay platform, contract assay)
T5 sequence (P23443 whole entry): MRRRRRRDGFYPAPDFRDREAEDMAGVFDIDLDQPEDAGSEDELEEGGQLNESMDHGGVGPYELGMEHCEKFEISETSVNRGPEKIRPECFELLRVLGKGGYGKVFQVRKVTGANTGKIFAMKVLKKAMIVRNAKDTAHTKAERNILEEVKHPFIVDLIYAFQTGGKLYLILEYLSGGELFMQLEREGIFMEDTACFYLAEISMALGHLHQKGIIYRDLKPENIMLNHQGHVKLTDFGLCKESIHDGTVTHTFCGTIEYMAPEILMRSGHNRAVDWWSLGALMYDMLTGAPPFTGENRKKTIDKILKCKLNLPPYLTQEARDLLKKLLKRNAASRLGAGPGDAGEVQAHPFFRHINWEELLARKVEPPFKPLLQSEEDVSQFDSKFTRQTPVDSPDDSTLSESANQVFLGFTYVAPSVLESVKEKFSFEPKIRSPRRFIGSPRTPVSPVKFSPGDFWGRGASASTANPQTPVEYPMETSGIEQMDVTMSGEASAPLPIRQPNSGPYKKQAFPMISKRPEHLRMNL

[4] = Homo sapiens, HCT-116, read-out: GSK3b inh pretreated_Viability ATP HCT116
[5] = Mus musculus, C2C12, IC50 / EC50; C2C12 beta-catenin translocation; read-out: Wnt Pathway
[6] = Homo sapiens, SW480, basal, read-out: Basal_Viability ATP SW480
[7] = Homo sapiens; IC50 / EC50; NCI-H716; read-out: GLP 1 Secretion
[8] = Homo sapiens, DLD-1, basal, read-out: Basal_Viability ATP DLD-1
[9] = Homo sapiens, IC50 / EC50; endothelial tube area, ADSC/ECFC co-culture; read-out: Anti-Angiogenesis
[10] = Homo sapiens, HCT-116, basal, read-out: Basal_Viability ATP HCT116
[11] = Homo sapiens, HeLa, IC50 / EC50, HeLa
[12] = Rattus norvegicus; IC50 / EC50; INS-1E; read-out: Insulin Secretion

T1 sequence (O60674 whole entry): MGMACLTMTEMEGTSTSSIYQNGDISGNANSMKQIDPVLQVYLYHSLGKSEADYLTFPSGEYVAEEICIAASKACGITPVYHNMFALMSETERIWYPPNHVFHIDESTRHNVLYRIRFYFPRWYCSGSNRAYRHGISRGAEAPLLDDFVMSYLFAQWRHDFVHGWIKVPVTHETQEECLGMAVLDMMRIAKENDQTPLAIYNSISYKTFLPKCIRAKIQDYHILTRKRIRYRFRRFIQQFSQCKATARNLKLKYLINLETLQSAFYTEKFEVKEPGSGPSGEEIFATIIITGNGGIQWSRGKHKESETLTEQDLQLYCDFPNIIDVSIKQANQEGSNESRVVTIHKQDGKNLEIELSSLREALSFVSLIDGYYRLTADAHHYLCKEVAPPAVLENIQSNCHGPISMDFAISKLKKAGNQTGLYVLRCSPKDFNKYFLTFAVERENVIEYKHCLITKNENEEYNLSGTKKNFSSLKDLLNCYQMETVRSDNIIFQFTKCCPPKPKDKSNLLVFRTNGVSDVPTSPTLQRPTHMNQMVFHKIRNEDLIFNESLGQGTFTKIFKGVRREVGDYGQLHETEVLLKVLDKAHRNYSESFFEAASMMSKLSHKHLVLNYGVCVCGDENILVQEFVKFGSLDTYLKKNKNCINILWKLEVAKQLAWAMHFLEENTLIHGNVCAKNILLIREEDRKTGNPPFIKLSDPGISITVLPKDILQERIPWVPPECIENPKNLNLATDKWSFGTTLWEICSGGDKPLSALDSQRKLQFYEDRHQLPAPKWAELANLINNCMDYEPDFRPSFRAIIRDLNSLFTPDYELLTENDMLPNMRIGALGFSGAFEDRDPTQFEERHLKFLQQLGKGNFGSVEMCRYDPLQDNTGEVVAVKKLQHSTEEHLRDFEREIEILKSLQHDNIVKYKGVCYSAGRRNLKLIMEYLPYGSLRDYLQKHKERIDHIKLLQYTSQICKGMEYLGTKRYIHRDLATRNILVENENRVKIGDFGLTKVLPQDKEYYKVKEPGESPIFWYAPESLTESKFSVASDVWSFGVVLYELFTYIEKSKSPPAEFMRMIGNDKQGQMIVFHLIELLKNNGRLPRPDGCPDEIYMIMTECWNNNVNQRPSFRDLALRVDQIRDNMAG

Nc1ncnc2c1ncn2CCOCP(=O)(O)O [Adefovir]
EC50 ([1]; Mus musculus, C2C12, read-out: Wnt Pathway): 0.387 µM
IC50 (hJAK2): > 20 µM
IC50 (SW480; Homo sapiens, SW480, read-out: Basal_Viability ATP SW480): 2.77 µM
IC50 (hKDR): > 20 µM
IC50 (hFLT3): > 20 µM
EC50 (NCI-H716 cells; Homo sapiens, NCI-H716, read-out: GLP 1 Secretion): > 10 µM
IC50 (DLD-1; Homo sapiens, DLD-1, read-out: Basal_Viability ATP DLD-1): 2.68 µM
IC50 ([2]; Homo sapiens, read-out: Anti-Angiogenesis): 0.391 µM
IC50 (hGSK3b): > 20 µM
IC50 (HCT116; Homo sapiens, HCT-116, read-out: Basal_Viability ATP HCT116): 9.01 µM
IC50 [3, 4]: 0.584 µM
EC50 (HeLa cells; Homo sapiens, HeLa): > 10 µM
EC50 (INS-1E cells; Rattus norvegicus, INS-1E, read-out: Insulin Secretion): > 10 µM
IC50 (hp70S6K1 (RPS6KB1)): > 20 µM

C[C@@]12C(=O)OC(=O)[C@]1(C)[C@H]1CC[C@@H]2O1 [Cantharidine]
EC50 ([1]; Mus musculus, C2C12; read-out: Wnt Pathway): 1.49 µM
IC50 (hJAK2; kinase assay): > 20 µM
IC50 (SW480; Homo sapiens, basal, SW480, read-out: Basal_Viability ATP SW480): 1.86 µM
IC50 (hKDR; kinase assay): > 20 µM
IC50 (hFLT3; kinase assay): > 20 µM
EC50 (NCI-H716 cells; Homo sapiens, NCI-H716; read-out: GLP 1 Secretion): 6.68 µM
IC50 (DLD-1; Homo sapiens, basal, DLD-1, read-out: Basal_Viability ATP DLD-1): 1.12 µM
IC50 ([2]; Homo sapiens; read-out: Anti-Angiogenesis): 1.23 µM
IC50 (hGSK3b; kinase assay): > 20 µM
IC50 (HCT116; Homo sapiens, HCT-116, basal, HCT116, read-out: Basal_Viability ATP HCT116): 7.71 µM
IC50 ([3]; Homo sapiens, HCT-116, HCT116 pretreated with GSK3b inhibitor, read-out: GSK3b inh pretreated_Viability ATP HCT116): 3.03 µM
EC50 (HeLa cells; Homo sapiens, S2 Table, HeLa, 20 = no response at highest concentration): > 10 µM
EC50 (INS-1E cells; Rattus norvegicus, INS-1E; read-out: Insulin Secretion): > 10 µM
IC50 (hp70S6K1 (RPS6KB1); kinase assay): > 20 µM

CCCCCCNC(=O)n1cc(F)c(=O)[nH]c1=O [Carmofur]
EC50 [1, 5]: 4.98 µM
IC50 (hJAK2): > 20 µM
IC50 (SW480; [6]): 10.6 µM
IC50 (hKDR): > 20 µM
IC50 (hFLT3): > 20 µM
EC50 (NCI-H716 cells; [7]): > 10 µM
IC50 (DLD-1; [8]): > 20 µM
IC50 [2, 9]: 4.49 µM
IC50 (hGSK3b): > 20 µM
IC50 (HCT116; [10]): > 20 µM
IC50 ([3]; Homo sapiens, HCT-116, GSK3b inhibitor pretreated, read-out: GSK3b inh pretreated_Viability ATP HCT116): 10.5 µM
EC50 (HeLa cells; [11]): > 10 µM
EC50 (INS-1E cells; [12]): > 10 µM
IC50 (hp70S6K1 (RPS6KB1)): > 20 µM

[O-][n+]1ccccc1SSc1cccc[n+]1[O-] [Dipyrithione magnesium sulfate]
EC50 ([1]; read-out: Wnt Pathway): 0.131 µM
IC50 (hJAK2): > 20 µM
IC50 (SW480; read-out: Basal_Viability ATP SW480): > 20 µM
IC50 (hKDR): > 20 µM
IC50 (hFLT3): > 20 µM
EC50 (NCI-H716 cells; read-out: GLP 1 Secretion): > 10 µM
IC50 (DLD-1; read-out: Basal_Viability ATP DLD-1): > 20 µM
IC50 ([2]; read-out: Anti-Angiogenesis): 0.719 µM
IC50 (hGSK3b): > 20 µM
IC50 (HCT116; read-out: Basal_Viability ATP HCT116): 20 µM
IC50 ([3]; read-out: GSK3b inh pretreated_Viability ATP HCT116): > 20 µM
EC50 (HeLa cells): > 10 µM
EC50 (INS-1E cells; read-out: Insulin Secretion): > 10 µM
IC50 (hp70S6K1 (RPS6KB1)): > 20 µM

CCCCCCCCCCCCCCCCCCNC(=O)OC1CCN(C(=O)OC[C@H](COC(=O)N(Cc2cccc[n+]2CC)C(=O)c2ccccc2OC)OC)CC1 [E-5880]
EC50 ([1]; IC50 / EC50; C2C12 beta-catenin translocation; read-out: Wnt Pathway): > 10 µM
IC50 (hJAK2): > 20 µM
IC50 (SW480; basal, read-out: Basal_Viability ATP SW480): 0.543 µM
IC50 (hKDR): > 20 µM
IC50 (hFLT3): > 20 µM
EC50 (NCI-H716 cells; IC50 / EC50; NCI-H716; read-out: GLP 1 Secretion): 9.52 µM
IC50 (DLD-1; basal, read-out: Basal_Viability ATP DLD-1): 3.28 µM
IC50 ([2]; IC50 / EC50; endothelial tube area, ADSC/ECFC co-culture; read-out: Anti-Angiogenesis): 1.5 µM
IC50 (hGSK3b): > 20 µM
IC50 (HCT116; basal, read-out: Basal_Viability ATP HCT116): 4.11 µM
IC50 ([3]; GSK3b inhibitor pretreated, read-out: GSK3b inh pretreated_Viability ATP HCT116): 4.42 µM
EC50 (HeLa cells; IC50 / EC50, HeLa): > 10 µM
EC50 (INS-1E cells; IC50 / EC50; INS-1E; read-out: Insulin Secretion): > 20 µM
IC50 (hp70S6K1 (RPS6KB1)): > 20 µM

CC[C@@]1(O)C(=O)OCc2c1cc1n(c2=O)Cc2c-1nc1ccccc1c2/C=N/OC(C)(C)C [Gimatecan]
EC50 [1, 5]: 0.0032 µM
IC50 (hJAK2): > 20 µM
IC50 (SW480; [6]): 0.222 µM
IC50 (hKDR): > 20 µM
IC50 (hFLT3): > 20 µM
EC50 (NCI-H716 cells; [7]): > 10 µM
IC50 (DLD-1; [8]): 0.315 µM
IC50 [2, 9]: 0.002 µM
IC50 (hGSK3b): > 20 µM
IC50 (HCT116; [10]): 0.0667 µM
IC50 [3, 4]: 0.0667 µM
EC50 (HeLa cells; [11]): > 10 µM
EC50 (INS-1E cells; [12]): > 10 µM
IC50 (hp70S6K1 (RPS6KB1)): > 20 µM

CCN(CC)CCNc1ccc(CO)c2sc3ccccc3c(=O)c12 [Hycanthonum]
EC50 ([1]; read-out: Wnt Pathway): 2.67 µM
IC50 (hJAK2; kinase assay): > 20 µM
IC50 (SW480; basal, SW480, read-out: Basal_Viability ATP SW480): 6.84 µM
IC50 (hKDR; kinase assay): > 20 µM
IC50 (hFLT3; kinase assay): > 20 µM
EC50 (NCI-H716 cells; S2 Table; module primary assay; 20 / 20.1 codes per legend; read-out: GLP 1 Secretion): > 10 µM
IC50 (DLD-1; basal, DLD-1, read-out: Basal_Viability ATP DLD-1): > 20 µM
IC50 ([2]; read-out: Anti-Angiogenesis): 8.35 µM
IC50 (hGSK3b; kinase assay): > 20 µM
IC50 (HCT116; basal, HCT116, read-out: Basal_Viability ATP HCT116): 8.59 µM
IC50 ([3]; HCT116 pretreated with GSK3b inhibitor, read-out: GSK3b inh pretreated_Viability ATP HCT116): > 20 µM
EC50 (HeLa cells; S2 Table, HeLa, 20 = no response at highest concentration): > 10 µM
EC50 (INS-1E cells; S2 Table; module primary assay; 20 / 20.1 codes per legend; read-out: Insulin Secretion): > 10 µM
IC50 (hp70S6K1 (RPS6KB1); kinase assay): 17.1 µM
